One series concerns Microsporum gypseum. Description: In vitro antifungal assay (micro liquid-based dilution). Format: cell-based. As to conditions: Nannizzia gypsea, read-out: Antifungal Activities, MIC80.
The test system of a further series is Tinea barbae. The series is described as above. Format: cell-based. As to conditions: read-out: Antifungal Activities, MIC80.
A further series deals with XN108 (CHN). The series can be described thus: IC50 of inhibition of staphyloxanthin synthesis in MRSA strain. The series is classed as cell-based. As to conditions: Staphylococcus aureus, read-out: Inhibitory activity on staphyloxanthin IC50. The method, then:
(§1) Selection of compound concentrations: based on the preliminary screening results, the ability of each compound to inhibit staphyloxanthin synthesis was determined. […] According to the assay results, 10 different concentration gradients were designed for each compound, such that the ability to inhibit staphyloxanthin synthesis comprised substantially from 0% to 100%.
(§2) Culture of the strains: single colonies of strain Newman and crtN mutant strain were picked from TSA plates, added into test tubes containing 4 mL of sterile TSB medium, and cultured at 37° C. and 250 rpm for 12 h for later use.
(§3) The relative level of staphyloxanthin synthesis at each concentration of the compound of the invention=A450 (sample)/A450 (negative control)*100%. With the molar concentration of the compound as the abscissa and the relative level of staphyloxanthin synthesis as the ordinate, a curve fitting of inhibitor concentration-inhibition rate (log(inhibitor) vs response) was performed in Graphpad prism 5.0 software, and the IC50 of the compound for inhibiting staphyloxanthin synthesis was calculated by software based on the fitting results.
(§4) Compound IA-25 was used as a representative compound. In addition to replacement of S aureus strain Newman with other MRSA strains as described in Table 3, the rest of the method is the same as in Examples 61-62.

The test system of the next series is LRSA56 (CHN). The series is described as above. Format: cell-based. As to conditions: Staphylococcus aureus, read-out: Inhibitory activity on staphyloxanthin IC50. On the procedure:
as §1, §2, §3, §4

For a further series, the system named is LRSA202 (CHN). The description is as above. As to conditions: Staphylococcus aureus, read-out: Inhibitory activity on staphyloxanthin IC50. The series is classed as cell-based. On the procedure:
as §1, §2, §3, §4

A further series relates to NF65Y. The series can be described thus: In vivo pharmacodynamics evaluation in infected mice. As to conditions: BALB/c mice infected retroorbitally with NF65Y. The method, then:
(§5) Compound IA-25 was used as a representative compound. The laboratory SPF-grade female BALB/c mice were purchased from Shanghai Jiesijie Laboratory Animal Co., Ltd. and bred under aseptic condition to 6-8 weeks old. The S. aureus strains which had been cultured overnight were transferred to fresh and sterile TSB medium and cultured at 37° C. and 250 rpm for 3 h to exponential growth phase; the culture was washed twice with PBS buffer, and then suspended in PBS for later use. In the mouse infection assay, the mice were divided into several groups, each containing 10 mice.

Another series concerns NRS271. The description is as above. As to conditions: BALB/c mice infected retroorbitally with NRS271. The method, then:
as §5

The test system of the next series is strain Newman. The description is as above. As to conditions: BALB/c mice infected retroorbitally with Newman. The method, then:
as §5

Another series has as its system NRS108. The description is as above. As to conditions: BALB/c mice infected retroorbitally with NRS108. The method, then: as §5
The next series has as its system LRSA56. The description is as above. As to conditions: BALB/c mice infected retroorbitally with LRSA56. The method, then: as §5
The subject of series [1] is Mu50. The description is as above. As to conditions: BALB/c mice infected retroorbitally with Mu50. The method, then: as §5
For a further series, the system named is LRSA202. Described as above. As to conditions: BALB/c mice infected retroorbitally with LRSA202. On the procedure:
as §5

In a further series the test system is USA300 LAC. The series can be described thus: IC50 of inhibition of staphyloxanthin synthesis in drug-resistant strain. As to conditions: Staphylococcus aureus. Format: cell-based. On the procedure: as §1, §2, §3
(§6) In addition to replacement of S. aureus strain Newman with USA 400 MW 2, USA 300 LAC and Mu 50, the rest of the method is the same as in Examples 58-59.
as §4

The subject of another series is USA400 MW2. The series is described as above. The series is classed as cell-based. As to conditions: Staphylococcus aureus. The method, then:
as §1, §2, §3, §6, §4

Series [2] concerns Mu50. The series is described as above. Format: cell-based. As to conditions: Staphylococcus aureus. The method, then: as §1, §2, §3, §6, §4
The next series addresses CYP enzyme subtype 2C19 (Homo sapiens, UniProt P33261). The series can be described thus: Inhibition assay on hepatic CYP450 enzyme. The series is classed as in vitro ADME. As to conditions: CYP 2C19; read-out: Half inhibitory concentration (IC50).
The nature of the next series: in vitro. As to conditions: mouse, microsomes.

Each structure is given as a SMILES string. Converted amounts (≈) assume the structure as drawn. Read-outs that look alike come from different tables or passages of the source.

CYP enzyme subtype 2C19, sequence (P33261 whole entry): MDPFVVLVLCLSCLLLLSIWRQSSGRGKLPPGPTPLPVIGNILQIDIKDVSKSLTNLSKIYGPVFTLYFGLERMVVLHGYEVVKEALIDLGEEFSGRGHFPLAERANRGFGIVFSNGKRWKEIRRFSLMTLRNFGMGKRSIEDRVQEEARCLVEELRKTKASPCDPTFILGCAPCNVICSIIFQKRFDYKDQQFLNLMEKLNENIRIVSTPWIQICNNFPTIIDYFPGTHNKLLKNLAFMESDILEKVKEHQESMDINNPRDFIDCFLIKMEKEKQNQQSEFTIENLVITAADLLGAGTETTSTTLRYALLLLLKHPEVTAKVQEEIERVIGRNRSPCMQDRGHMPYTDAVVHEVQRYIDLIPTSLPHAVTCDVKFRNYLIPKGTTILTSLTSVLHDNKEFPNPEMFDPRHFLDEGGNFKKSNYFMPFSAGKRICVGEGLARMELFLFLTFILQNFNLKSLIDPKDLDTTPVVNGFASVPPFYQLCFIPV

`CN(C/C=C/c1ccc(-c2ccccc2)cc1)Cc1coc2ccccc12` [Compound IA-25, (E)-N-methyl-N-[(benzofuran-3-yl)methylene]-3-(4-phenylphenyl)-prop-2-en-1-amine]: the values for the MIC80 with Microsporum gypseum and with Tinea barbae were 32 µg/mL (≈ 90.5 µM) and over 64 µg/mL, respectively. Also, the IC50 was determined as 0.2 ± 0.04 nM with XN108 (CHN); 1.8 ± 0.1 nM in the series on LRSA56 (CHN); 1.6 ± 0.2 nM in the series with LRSA202 (CHN); 7.9 ± 1.2 nM in the series with USA300 LAC (USA300, read-out: IC50, staphyloxanthin synthesis in drug-resistant strain); 7.9 ± 0.2 nM with USA300 LAC (USA300, read-out: Inhibitory activity on staphyloxanthin IC50); 1.9 ± 0.5 nM in the series with USA400 MW2 (USA400, read-out: IC50, staphyloxanthin synthesis in drug-resistant strain). The IC50 in the series on USA400 MW2 (USA400, read-out: Inhibitory activity on staphyloxanthin IC50) was 1.9 ± 1.2 nM; in the series with Mu50 [2] (read-out: IC50, staphyloxanthin synthesis in drug-resistant strain), 0.8 ± 1.4 nM; in the series with Mu50 [2] (read-out: Inhibitory activity on staphyloxanthin IC50), 0.8 ± 0.01 nM; at CYP enzyme subtype 2C19, over 10000 nM. The “Viable colony counts in vivo” value in the series on NF65Y was found to be 3.5 Log10CFU; in the series on NRS271, 6.4 Log10CFU; in the series with strain Newman, 3.8 Log10CFU; in the series with NRS108, 2.3 Log10CFU; in the series on LRSA56, 3.3 Log10CFU; in the series on Mu50 [1], 2.7 Log10CFU. Also, the “Viable colony counts in vivo” value in the series on LRSA202 came to 4.9 Log10CFU. Further, in the series “in vitro”, the half-life is 0.833 to 2 h.

The MIC80 is an inhibitory concentration at the 80% level, which refers to growth in some studies and to a panel of isolates in others. One may read the half-life as the time in which the quantity being followed falls by half. The low end stands for rapid decline, the high end for slow decline.

The values above are taken from patent US10829464B2, “Benzoheterocyclic alkylamine compounds and use thereof” (priority 2016, dated 2020).
